Reference: patent US6713509B1, “Controlled release formulation for treating COPD” (SmithKline Beecham Corporation, priority 1999, dated 2004)

Legend:
PDE 4 = assay: IC50 ratio (high/low affinity rolipram binding forms of PDE 4); assay type: biochemical; details: IC50 for competing with 1 nM [3H]R-rolipram binding (high affinity form) over IC50 for PDE 4 catalytic activity (low affinity form), 1 uM [3H]-cAMP
From the text: This invention covers controlled release formulations which contain a PDE 4 inhibitor, particularly an inhibitor that is specific for PDE 4. A preferred group of inhibitors are those that have an IC50 ratio (high/low binding) of about 0.1 or greater as further described in co-pending U.S. application Ser. No. 08/456,274, now U.S. Pat. No. 6,143,782 and its published counter-part PCT application serial number published Jan. 05, 1995 as WO95/00139; this application is incorporated herein in full by reference as if fully set forth herein. A preferred standard for PDE 4-specific inhibitors which can be used in this invention is one where the compound has an IC50 ratio of about 0.1 or greater; said ratio being the ratio of the IC50 value for competing with the binding of 1 nM of [^3H]R-rolipram to a form of PDE 4 which binds rolipram with a high affinity over the IC50 value for inhibiting the PDE 4 catalytic activity of a form which binds rolipram with a low affinity using 1 uM[^3H]-cAMP as the substrate.

[1] = oral administration of the PDE4 inhibitor in COPD: effect and side effects; assay type: in vivo
[2] = stability of Carbopol-based controlled release tablet versus moisture level; assay type: physicochemical; details: moisture removed from the system
From the text: Low moisture levels in certain Carbopol-based controlled release preparations may compromise the stability of the active ingredient cis-4-cyano-4-[3-(cyclopentyloxy)-4-methoxyphenyl]cyclohexane-1-carboxylic acid. High moisture levels may compromise the release rate of such formulations.
It is not known why this occurs when the moisture level is below 0.5% nor is it known how to stop this from occuring, other than to maintain the specified levels of hydration.
The technique for measuring moisture level in this representative tablet was as follows:
The analysis was performed using a Omnimark MARK2 Moisture Analyzer. The Unit determines the moisture content using Infrared heat to dry the sample at a programmed temperature of 120° Celsius with a standby temperature of 80° Celsius. It calculates the percent loss on drying from the initial weight and the final weight of the sample. The results are printed out as % w/w automatically when the analysis is finished. The analysis usually takes 2 to 3 minutes for one measurement of a sample with a moisture level of less than 1.5%w/w.

For `COc1ccc([C@]2(C#N)CC[C@@H](C(=O)O)CC2)cc1OC1CCCC1` [cis-4-cyano-4-[3-(cyclopentyloxy)-4-methoxyphenyl]cyclohexane-1-carboxylic acid], the “therapeutic ratio (IC50 ratio high/low binding)” value (PDE 4) was “greater than 0.1”, the “therapeutic effect in COPD” value ([1]; administered orally, at certain doses) was “achieve an effective therapeutic effect in COPD at certain doses” and the side effects ([1]; as blood levels increase with increased levels of dosing) was “undesirable side effects such as those attributed to CNS activity begin to be manifested”. The “stability in combination with dibasic calcium phosphate (anhydrous)” value [2] was “appears to be unstable when moisture is removed from the system”.
